Experimental data reported in patent US9359381B2, “Tricyclic compounds for inhibiting the CFTR channel” (Novartis AG, priority 2012, dated 2016).

Molecular target: T1, WT-CFTR channels (Homo sapiens, UniProt P13569)
T1 construct: expressed in transfected cells
Assay: IonWorks Quattro CFTR inhibitor assay (whole-cell planar patch clamp)
Format: cell-based
Details: inward current (−100 mV); CHO cells stably expressing WT-CFTR; CFTR activated by 10 μM forskolin; 10 min compound incubation
Experimental: This assay directly measures the currents associated with chloride flow through CFTR channels whilst either maintaining or adjusting the transmembrane voltage.
Chinese hamster ovary (CHO) cells stably expressing WT-CFTR channels were used for the IonWorks Quattro experiments. Cells were maintained at 37° C. in 5% v/v CO2 at 100% humidity in MEM alpha medium supplemented with 10% (v/v) FCS, 100 U/mL Penicillin/Streptomycin, and 100 μg/L methotrexate. For experiments, cells were grown in 225 cm^2 tissue culture flasks until almost confluent. Cells were removed from the flask using trypsin-EDTA and resuspended in extracellular recording solution for immediate experimentation.
Cells, at a density of 1.5-2 million per mL, were placed on the Quattro system, added to the planar patch plate and seals allowed to establish for 5-10 mins. […] CFTR was activated by the addition of 10 μM forskolin to each of the 384 wells of the patch plate. […] Test compounds, diluted from 10 mM stocks in DMSO in extracellular solution were then added to the patch plate and were incubated for a further 10 min. […] This was determined at both −100 mV and +100 mV which represents the inward and outward current respectively.

T1 sequence (P13569 whole entry): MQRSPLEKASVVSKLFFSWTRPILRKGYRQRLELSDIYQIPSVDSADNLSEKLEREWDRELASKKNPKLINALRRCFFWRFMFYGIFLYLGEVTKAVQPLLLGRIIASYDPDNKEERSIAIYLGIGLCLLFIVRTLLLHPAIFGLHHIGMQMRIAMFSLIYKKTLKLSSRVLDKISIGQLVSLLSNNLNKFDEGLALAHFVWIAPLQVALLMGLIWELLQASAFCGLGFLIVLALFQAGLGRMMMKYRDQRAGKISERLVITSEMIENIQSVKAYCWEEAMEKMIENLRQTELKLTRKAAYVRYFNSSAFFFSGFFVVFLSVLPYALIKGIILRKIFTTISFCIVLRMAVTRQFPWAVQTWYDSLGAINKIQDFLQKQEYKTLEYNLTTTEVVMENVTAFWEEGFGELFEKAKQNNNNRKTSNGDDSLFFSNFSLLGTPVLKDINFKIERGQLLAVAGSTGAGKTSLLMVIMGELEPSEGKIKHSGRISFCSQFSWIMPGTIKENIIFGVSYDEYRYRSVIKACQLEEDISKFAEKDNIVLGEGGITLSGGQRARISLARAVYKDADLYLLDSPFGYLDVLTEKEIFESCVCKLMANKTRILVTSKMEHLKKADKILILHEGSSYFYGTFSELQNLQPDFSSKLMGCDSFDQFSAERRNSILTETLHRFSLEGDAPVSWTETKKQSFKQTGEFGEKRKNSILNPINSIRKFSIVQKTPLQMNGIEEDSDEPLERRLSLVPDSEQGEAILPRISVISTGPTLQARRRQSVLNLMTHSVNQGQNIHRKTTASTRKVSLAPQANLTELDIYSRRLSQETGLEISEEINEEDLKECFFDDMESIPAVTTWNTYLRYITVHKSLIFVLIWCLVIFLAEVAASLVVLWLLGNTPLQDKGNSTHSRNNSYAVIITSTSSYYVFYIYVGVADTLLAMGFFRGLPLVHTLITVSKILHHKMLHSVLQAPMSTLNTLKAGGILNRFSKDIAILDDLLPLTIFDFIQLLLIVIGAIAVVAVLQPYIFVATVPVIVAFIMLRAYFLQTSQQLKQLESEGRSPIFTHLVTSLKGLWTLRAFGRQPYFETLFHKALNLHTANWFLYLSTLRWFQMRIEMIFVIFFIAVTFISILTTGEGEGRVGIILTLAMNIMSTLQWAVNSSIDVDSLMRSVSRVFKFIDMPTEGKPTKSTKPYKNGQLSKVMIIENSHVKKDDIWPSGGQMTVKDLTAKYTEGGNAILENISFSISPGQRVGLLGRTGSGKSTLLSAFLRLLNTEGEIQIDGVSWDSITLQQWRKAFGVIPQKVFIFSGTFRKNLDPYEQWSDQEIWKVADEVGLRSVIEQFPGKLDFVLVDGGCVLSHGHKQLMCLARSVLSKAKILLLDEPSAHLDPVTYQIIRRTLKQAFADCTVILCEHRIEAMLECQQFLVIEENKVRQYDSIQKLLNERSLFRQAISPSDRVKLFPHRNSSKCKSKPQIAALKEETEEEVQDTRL

Structure (SMILES): Cc1csc(-c2c3c(=O)n(C)c(=O)n(C)c3c3n2CCC[C@H]3c2nc(Cl)cs2)n1 (single isomer, unassigned) [Example 13.2a, 10-(4-chlorothiazol-2-yl)-1,3-dimethyl-5-(4-methylthiazol-2-yl)-7,8,9,10-tetrahydropyrimido[4,5-a]indolizine-2,4(1H,3H)-dione]
- IC50: 0.05 µM
